Paper PMC8901748, “A novel prostaglandin E receptor 4 (EP4) small molecule antagonist induces articular cartilage regeneration” (Cell Discovery, 2022)

What was measured:
[1] = system: articular cartilage defect; assay: DMM surgery-induced CD mouse model; format: in vivo, mice (strain C57/BL/6); conditions: Grapiprant 30 mg/kg, HL-43 10 mg/kg, compared to vehicle
Description: EP4^f/f mice[67] were crossed with the Col2-cre strain to generate Col2-cre; EP4^f/f (EP4^Col2) mice, or were crossed with Aggrecan-creERT2[68] mice to generate EP4^f/f; Aggrecan-CreERT2 (EP4^AcanERT2) mice. Mice were maintained at the animal center of East China Normal University. All mouse experiments were approved by Ethics Committee at East China Normal University. Mice of the same genetic background were generated and raised under identical conditions. Sex-matched littermate mice were compared. For the DMM surgery-induced CD mouse model, WT mice (strain C57/BL/6) or EP4^Acan mice were used, n = 5 for each group. DMM surgery was carried out as previous described using 10-week-old male mice[69],[70]; while Sham-operated mice were used as controls. Knee joints were collected for histological analysis 6 or 8 weeks after surgery. Osteoarthritis Research Society International (OARSI) histopathology grading system was used to evaluate the sections, six sections of the articular cartilage of each mouse were evaluated. Synovitis was assessed by the synovitis score. Therapy with oral EP4 inhibitors was initiated one day after surgery and continued for 8 weeks, n = 8 for each group. EP4 inhibitors and Celecoxib were dissolved in carboxymethylcellulose sodium which is prepared at the concentration of 0.5%, and vehicle contained carboxymethylcellulose sodium alone. The vehicle, Celecoxib, Grapiprant, and HL-43 were delivered to mice at indicated doses daily by gavage, Celecoxib purchased from damas-beta (29322B), Grapiprant was purchased from Yuduobio, Shanghai, all other EP4 antagonists were synthesized by Dr. Hankun Zhang’s lab.
Von Frey nylon filaments were used to test the hind-paw reflex sensitivity to punctate static mechanical stimuli. Mice were habituated to the wire mesh bottom cages for 30 min before the test. von Frey filaments (Aesthesio von Frey Kit, Ugo Basile, Varese, Italy) were applied from underneath the mouse in ascending order to the mid-plantar surface of the hind paws. If withdrawal response was not induced, the next level of von Frey hair was applied until at least six withdrawals occurred in ten stimuli. This minimal force required to elicit 50% positive response was recorded as the paw withdrawal threshold[73],[74].
The paw withdrawal latency (PWL) and threshold (PWT) of thermal hyperalgesia were measured using the Ugo-Basile 37370 plantar test (Comerio, Italy). The mice were placed on a glass plate of constant temperature for 30 min before each test. Thermal thresholds of the ipsilateral hind paws were assessed three times with a 10 min interval between trials. The time(s) from irradiation to paw withdrawal was recorded as the thermal withdrawal latency. […]

gastrointestinal tract = assay: Gastrointestinal tract toxicity (data not shown); format: in vivo; conditions: compared to Celecoxib
STAT-Luc in ATDC5 cells = assay: STAT-Luc luciferase reporter assay; format: cell-based, mouse; conditions: 2 ng/ml IL-1β, 30 μM HL-43, 6 h
Experimental: (§1) Six firefly luciferase reporters were used in the Luciferase assay, including CRE-Luc (PathDetect CRE cis-Reporting System; Stratagene, La Jolla CA) driven by a basic promoter (TATA box) plus four repeats of CRE; Sox9 promoter-Luc contains human SOX9 proximal promoter region (−1034 bp to +67 bp)[45]; 4 × 48-p89-Luc, mouse Col2a1 minimal promoter. AP-1-Luc, Nf-κb-Luc, STAT-Luc were obtained from Stratagene. Chondrocytes were cultured in 24-well plates and 300 ng firefly luciferase reporter constructs were transiently transfected using transfection reagent TransExellent-DNA (Cenji Biotech Inc, China) following manufacturer’s instruction, and 15 ng of the Copia-Renilla luciferase reporter was co-transfected as a normalization control. Cells were treated with the indicated reagents for 48 h after transfection. The Dual-Luciferase measurements were performed in triplicate using the Luciferase assay kit (Promega) and a LUMIstar Omega luminometer (BMG Labtech, Mornington, Australia).

[2] = system: Sox9 promoter-Luc in ATDC5 cells; assay: Sox9 promoter-Luc luciferase reporter assay; format: cell-based, mouse; conditions: 6 h
Experimental: as §1

[3] = Preliminary pharmacokinetic studies in CD1 mice; format: in vivo
Experimental: To evaluate the preclinical pharmacokinetic (PK) profiles of compound HL-43 and HL-66, 36 male CD1 mice were randomly divided into four groups for PK studies. […] Blood samples were collected at 0.083, 0.25, 0.5, 1, 2, 4, 8, 12, and 24 h after administration (n = 3). Then the whole blood was centrifuged at 5500 × g for 15 min at 4 °C. After suitable sample preparation, the concentration of HL-43 and HL-66 in plasma sample was determined by Agilent HPLC-MS/MS system (Agilent Technologies, USA). Pharmacokinetic parameters were calculated by WinNonlin software version 7.0 based on non-compartmental analysis (Pharsight Corporation, Mountain View, USA). Mean plasma concentration-time curves were plotted by GraphPad Prism 7.0 (GraphPad Software Inc., CA, USA).

Nf-κb-Luc in ATDC5 cells = assay: NF-κB-Luc luciferase reporter assay; format: cell-based, mouse; conditions: 2 ng/ml IL-1β, 30 μM HL-43, 6 h
Experimental: as §1

[4] = system: STAT3 nuclear translocation in ATDC5 cells; assay: Immunofluorescence of STAT3 and p-STAT3 subcellular localization; format: cell-based, mouse; conditions: HL-43 (30 μM), 5 ng/ml IL-1β, 24 h

SMILES	Expression of Col2, Acan, and Sox9 in knee joint [1]	Expression of Mmp13 and ColX in knee joint [1]	Toxicity in gastrointestinal tract (gastrointestinal tract)	STAT luciferase reporter activity (STAT-Luc in ATDC5 cells)	Sox9 promoter-Luc activity after IL-1β ([2]; 2 ng/ml IL-1β)	Sox9 promoter-Luc activity ([2]; without IL-1β)	AUC0-∞ ([3]; I.V. (5 mg/kg)) [µg·h/mL]	C0 ([3]; I.V. (5 mg/kg)) [µg/mL]	CL ([3]; I.V. (5 mg/kg)) [L/h/kg]	Vd ([3]; I.V. (5 mg/kg)) [L/kg]	t1/2 ([3]; I.V. (5 mg/kg)) [h]	AUC0-∞ ([3]; P.O. (1 mg/kg)) [µg·h/mL]	CL ([3]; P.O. (1 mg/kg)) [L/h/kg]	Cmax ([3]; P.O. (1 mg/kg)) [µg/mL]	Vd ([3]; P.O. (1 mg/kg)) [L/kg]	t1/2 ([3]; P.O. (1 mg/kg)) [h]	Bioavailability ([3]; oral) [%]	NF-κB luciferase reporter activity (Nf-κb-Luc in ATDC5 cells)	IL-1β-induced nuclear translocation of STAT3 and p-STAT3 [4]
C[C@H](NC(=O)c1c(-c2ccccc2)nnn1CCOc1ccc(F)cc1)c1ccc(C(=O)O)cc1 [HL-43]	increased	decreased	lower toxicity	significantly inhibited	partially rescued the Sox9 transcriptional expression in a dose-dependent manner	increased by HL-43 stimulation in a dose-dependent manner	0.9172	1.6136	1.1	6.3	4.0	1.0761	4.6	0.2702	21.8	3.3	23.7	not AP-1 or NF-κB	suppressed
CCc1nc2c(C)nc(C)cc2n1-c1ccc(CCNC(=O)NS(=O)(=O)c2ccc(C)cc2)cc1 [Grapiprant]	increased	decreased	–	–	–	–	–	–	–	–	–	–	–	–	–	–	–	–	–
